test system: C666-1 cells; assay: C666-1 cell viability single concentration (50 μM) inhibition rate (Resazurin); type: cell-based; conditions: 50 μM compound, 72 hours, C666-1 cells
Method in brief: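 EBV-positive C666-1 cells (5×10^3/well), pre-cultured 24 h, were exposed to compound at 50 μmol/L final for 72 h at 37° C, 5% CO2, in duplicate. Viability by resazurin (3 h, ex 560/em 590 nm); inhibition rate computed relative to DMSO control and medium-only blank.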

For `COC(=O)c1cccc(N2CC(Oc3ccccc3)C2)c1-n1cccc1` [Example 101, Methyl 3-(3-phenoxyazetidin-1-yl)-2-(1H-pyrrol-1-yl)benzoate], the “C666-1 cell viability single concentration (50 μM) inhibition rate, Ratio* (Inh %)” value was “+++ (30%-50% +++)”.

same assay, conditions: Homo sapiens, C6661, 72 h, 50 μM compound, 72 hours, C666-1 cells; read-out: C666-1 cell viability single concentration (50 μM) inhibition rate, Ratio* (Inh %)

Compared with `CC(=O)c1ccc(Oc2ccc(OC3CN(c4cccc(C(=O)O)c4-n4cccc4)C3)cc2)cc1` [Example 207, 3-(3-(4-(4-acetylphenoxy)phenoxy)azetidin-1-yl)-2-(1H-pyrrol-1-yl)benzoic acid], `CC(=O)c1ccc(OC2CN(c3cccc(C(=O)O)c3-n3cccc3)C2)cc1` [Compound 88, 3-(3-(4-acetylphenoxy)azetidin-1-yl)-2-(1H-pyrrol-1-yl)benzoic acid] is lower in inhibition at 50 µM: 10 to 30% for the first, under 10% for the second.

Compared with `COC(=O)c1cccc(N2CC(S(=O)(=O)c3ccc(C)cc3)C2)c1-n1cccc1` [Example 192, Methyl 2-(1H-pyrrol-1-yl)-3-(3-(p-tolylsulfonyl)azetidin-1-yl)benzoate], `COC(=O)c1cccc(N2CC(S(=O)(=O)c3ccccc3)C2)c1-n1cccc1` [Example 356, Methyl 3-(3-(phenylsulfonyl)azetidin-1-yl)-2-(1H-pyrrol-1-yl)benzoate] is lower in inhibition at 50 µM: 10 to 30% for the first, under 10% for the second.

First: CCCCCCCC(=O)OCc1ccc(OC2CN(c3cccc(C(=O)OC)c3-n3cccc3)C2)cc1 [Compound 75, Methyl 3-(3-(4-((octanoyloxy)methyl)phenoxy)azetidin-1-yl)-2-(1H-pyrrol-1-yl)benzoate]
Second: COC(=O)c1cccc(N2CC(Oc3ccc(COC(C)=O)cc3)C2)c1-n1cccc1 [Compound 74, Methyl 3-(3-(4-(acetoxylmethyl)phenoxy)azetidin-1-yl)-2-(1H-pyrrol-1-yl)benzoate]
The inhibition at 50 µM of the first is higher: 10 to 30% for the first, under 10% for the second.

Compared with `COC(=O)c1ccc(N2CC3(C2)CN(c2cccc(C(=O)OC)c2-n2cccc2)C3)cc1` [Compound 23, Methyl 3-(6-(4-(methoxycarbonyl)phenyl)-2,6-diazaspiro[3.3]heptan-2-yl)-2-(1H-pyrrol-1-yl)benzoate], `COC(=O)c1cccc(N2CC3(C2)CN(c2cccc(C(=O)OC)c2-n2cccc2)C3)c1` [Compound 17, Methyl 3-(6-(3-(methoxycarbonyl)phenyl)-2,6-diazaspiro[3.3]heptan-2-yl)-2-(1H-pyrrol-1-yl)benzoate] is higher in inhibition at 50 µM: under 10% for the first, 10 to 30% for the second.

`COC(=O)c1cccc(N2CC(Oc3cccc(-c4csc(NS(C)(=O)=O)n4)c3)C2)c1-n1cccc1` [Example 288, Methyl 3-(3-(3-(2-(methylsulfonamido)thiazol-4-yl)phenoxy)azetidin-1-yl)-2-(1H-pyrrol-1-yl)benzoate] and `COC(=O)c1cccc(N2CC(Oc3cc(Cl)nc(Cl)c3)C2)c1-n1cccc1` [Compound 91, Methyl 3-(3-((2,6-dichloropyridin-4-yl)oxy)azetidin-1-yl)-2-(1H-pyrrol-1-yl)benzoate] cannot be ordered by inhibition at 50 µM: under 10% for the first, under 10% for the second.

`COC(=O)c1cccc(C23CC(c4ccccc4)(C2)C3)c1-n1cccc1` [Compound 5, Methyl 3-(3-phenylbicyclo[1.1.1]pentan-1-yl)-2-(1H-pyrrol-1-yl)benzoate] and `COC(=O)c1cccc(N2CC(Sc3ccc(C)cc3)C2)c1-n1cccc1` [Example 190, Methyl 2-(1H-pyrrol-1-yl)-3-(3-(p-tolylthio)azetidin-1-yl)benzoate] cannot be ordered by inhibition at 50 µM: under 10% for the first, under 10% for the second.

Compared with `COC(=O)c1cccc(N2CC(OC(=S)Nc3ccc(Br)cc3)C2)c1-n1cccc1` [Example 156, Methyl 3-(3-(((4-bromophenyl)thiocarbamoyl)oxy)azetidin-1-yl)-2-(1H-pyrrol-1-yl)benzoate], `COC(=O)c1cccc(N2CC(NC(=O)Nc3ccc(OC(F)(F)F)cc3)C2)c1-n1cccc1` [Example 166, Methyl 2-(1H-pyrrol-1-yl)-3-(3-(3-(4-(trifluoromethoxy)phenyl)ureido)azetidin-1-yl)benzoate] is higher in inhibition at 50 µM: 30 to 50% for the first, over 50% for the second.

First: COC(=O)c1cccc(N2CC([S+]([O-])c3ccc(C)cc3)C2)c1-n1cccc1 (stereo not shown) [Example 191, Methyl 2-(1H-pyrrol-1-yl)-3-(3-(p-tolylsulfinyl)azetidin-1-yl)benzoate]
Second: COC(=O)c1cccc(N2CC(Sc3ccc(C(C)C)cc3)C2)c1-n1cccc1 [Example 348, Methyl 3-(3-((4-isopropylphenyl)thio)azetidin-1-yl)-2-(1H-pyrrol-1-yl)benzoate]
The inhibition at 50 µM of the first is higher: 10 to 30% for the first, under 10% for the second.

Compared with `COC(=O)c1cccc(N2CC(Oc3ccc(CNS(=O)(=O)C4CC4)cc3)C2)c1-n1cccc1` [Compound 78, Methyl 3-(3-(4-(cyclopropylsulfonamidomethyl)phenoxy)azetidin-1-yl)-2-(1H-pyrrol-1-yl)benzoate], `CCCOc1ccc(OC2CN(c3cccc(C(=O)OC)c3-n3cccc3)C2)cc1` [Example 105, Methyl 3-(3-(4-propoxyphenoxy)azetidin-1-yl)-2-(1H-pyrrol-1-yl)benzoate] is lower in inhibition at 50 µM: over 50% for the first, under 10% for the second.

`COC(=O)c1cccc(N2CC(Oc3ccc(NC(=S)Nc4ccccc4OC)cc3)C2)c1-n1cccc1` [Example 119, Methyl 3-(3-(4-(3-(2-methoxyphenyl)thioureido)phenoxy)azetidin-1-yl)-2-(1H-pyrrol-1-yl)benzoate] and `COc1ccccc1NC(=O)Nc1ccc(OC2CN(c3cccc(C(=O)O)c3-n3cccc3)C2)cc1` [Example 289, 3-(3-(4-(3-(2-methoxyphenyl)ureido)phenoxy)azetidin-1-yl)2-(1H-pyrrol-1-yl)benzoic acid] fall in the same range of inhibition at 50 µM: 10 to 30% for the first, 10 to 30% for the second.

Compared with `O=C(O)c1cccc(N2CC(Oc3ccc(CO)cc3)C2)c1-c1cccc(Cl)c1` [Compound 54], `N#Cc1cccc(-c2c(C(=O)O)cccc2N2CC(Oc3ccc(CO)cc3)C2)c1` [Example 278] is lower in inhibition at 50 µM: 30 to 50% for the first, 10 to 30% for the second.

`COC(=O)c1cccc(N2CC(Oc3ccc(CO)cc3)C2)c1-c1cccc(F)c1` [Compound 50] and `COC(=O)c1cccc(N2CC(Oc3ccc(CO)cc3)C2)c1-c1cc(F)cc(F)c1` [Compound 61, Methyl 3′,5′-difluoro-6-(3-(4-(hydroxymethyl)phenoxy)azetidin-1-yl)-[1,1′-biphenyl]-2-formate] fall in the same range of inhibition at 50 µM: 10 to 30% for the first, 10 to 30% for the second.

First: CN(C)c1ccc(OC2CN(c3cccc(C(=O)O)c3-n3cccc3)C2)cc1 [Example 98, 3-(3-(4-(dimethylamino)phenoxy)azetidin-1-yl)-2-(1H-pyrrol-1-yl)benzoic acid]
Second: O=C(O)c1cccc(N2CC(Oc3ccc(COCCO)cc3)C2)c1-n1cccc1 [Example 373]
The inhibition at 50 µM of the first is higher: 10 to 30% for the first, under 10% for the second.

`COC(=O)c1cccc(C#CN(Cc2ccc(C(F)(F)F)cc2)S(=O)(=O)c2cccs2)c1-n1cccc1` [Example 336, Methyl 3-((N-(4-(trifluoromethyl)benzyl)thiophen-2-sulfonamido)ethynyl)-2-(1H-pyrrol-1-yl)benzoate] and `COC(=O)c1cccc(C#CN(Cc2ccccc2)S(=O)(=O)c2ccccc2)c1-n1cccc1` [Example 340, Methyl 3-((N-benzyl-N-phenylsulfonamido)ethynyl)-2-(1H-pyrrol-1-yl)benzoate] cannot be ordered by inhibition at 50 µM: under 10% for the first, under 10% for the second.

Compared with `COC(=O)c1cccc(N2CC(Oc3ccc(CO)cc3)C2)c1-n1cccn1` [Compound 69, Methyl 3-(3-(4-(hydroxymethyl)phenoxy)azetidin-1-yl)-2-(1H-pyrazol-1-yl)benzoate], `COC(=O)c1cccc(N2CC(Oc3ccc(CO)cc3)C2)c1-c1ccoc1` [Compound 48] is higher in inhibition at 50 µM: 10 to 30% for the first, over 50% for the second.

Compared with `COC(=O)c1cccc(C#CN(Cc2ccccc2)S(=O)(=O)c2ccc3occc3c2)c1-n1cccc1` [Example 330, Methyl 3-((N-benzylbenzofuran-5-sulfonamido)ethynyl)-2-(1H-pyrrol-1-yl)benzoate], `O=C(O)c1cccc(N2CC(Oc3ccc(Oc4ccccc4)cc3)C2)c1-n1cccc1` [Example 112, 3-(3-(4-phenoxyphenoxy)azetidin-1-yl)-2-(1H-pyrrol-1-yl)benzoic acid] is lower in inhibition at 50 µM: over 50% for the first, under 10% for the second.

First: COC(=O)c1cccc(N2CC(NC(=O)Nc3cc(OC)cc(OC)c3)C2)c1-n1cccc1 [Example 170, Methyl 3-(3-(3-(3,5-dimethoxyphenyl)ureido)azetidin-1-yl)-2-(1H-pyrrol-1-yl)benzoate]
Second: COC(=O)c1cccc(N2CC(Oc3ccc(NC(=O)Nc4ccc(C(F)(F)F)cc4)cc3)C2)c1-n1cccc1 [Example 229, Methyl 3-(3-(4-(3-(4-(trifluoromethyl)phenyl)ureido)phenoxy)azetidin-1-yl)-2-(1H-pyrrol-1-yl)benzoate]
The inhibition at 50 µM of the first is lower: 10 to 30% for the first, over 50% for the second.

`O=C(O)c1cccc(N2CC(Oc3ccc(CO)cc3)C2)c1-c1ccoc1` [Compound 49] and `O=C(O)c1cccc(C23CC(C(O)c4ccc(C(F)(F)F)nc4)(C2)C3)c1` (stereo not shown) [Compound 3, 3-(3-(hydroxyl(6-(trifluoromethyl)pyridin-3-yl)methyl)bicyclo[1.1.1]pentan-1-yl)benzoic acid] cannot be ordered by inhibition at 50 µM: under 10% for the first, under 10% for the second.

same assay, conditions: Homo sapiens, C6661, 72 h, read-out: C666-1 cell viability single concentration (50 μM) inhibition rate, Ratio* (Inh %)

First: O=C(O)c1cccc(C#CN(Cc2ccc(C(F)(F)F)cc2)S(=O)(=O)c2cccs2)c1-n1cccc1 [Example 337, Lithium 3-((N-(4-(trifluoromethyl)benzyl)thiophen-2-sulfonamido)ethynyl)-2-(1H-pyrrol-1-yl)benzoate]
Second: Cc1ccc(S(=O)(=O)N(C#Cc2cccc(C(=O)O)c2-n2cccc2)Cc2ccc(CO)cc2)cc1 [Example 333, Lithium 3-(((N-(4-(hydroxymethyl)benzyl)-4-methylphenyl)sulfonamido)ethynyl)-2-(1H-pyrrol-1-yl)benzoate]
The inhibition at 50 µM of the first is lower: 10 to 30% for the first, over 50% for the second.

For `O=C(O)c1cccc(C#CN(Cc2ccccc2)S(=O)(=O)c2ccc3occc3c2)c1-n1cccc1` [Example 331, Lithium 3-((N-benzylbenzofuran-5-sulfonamido)ethynyl)-2-(1H-pyrrol-1-yl)benzoate], the inhibition at 50 µM was under 10%.

— US20230157996A1, “SMALL-MOLECULE INHIBITOR TARGETING EB VIRUS NUCLEAR ANTIGEN PROTEIN, PREPARATION METHOD AND USE THEREOF” (priority 2020, published 2023)
